Source: patent US7045627B2, “Dichlorinated heterocyclic compounds and methods of synthesis” (R.T. Alamo Ventures I, LLC, priority 2002, dated 2006)

Test system: PDE1
Assay: PDE1 enzyme inhibition assay
Format: biochemical
Details: PDE1 partially purified from bovine heart; 25° C.; varying concentrations; 1% DMSO vehicle
From the text: In this example, dichloroflosequinan was subjected to biochemical enzyme assays to determine its respective percent inhibition of a variety of phosphodiesterases (PDE1–PDE6). The methods used have been adapted from those described in the scientific literature, see Hidaka and Asano “Human blood platelet 3′:5′ cyclic nucleotide phosphodiesterase. Isolation of low-Km and high Km phosphodiesterase.” Biochem. Biophys. […] Unhydrolyzed cAMP was bound to AGI-X2 resin, and the remaining [^3H]adenosine in the aqueous phase was quantitated by scintillation counting. • PDE2: PDE2 partially purified from human platelets was used. […] Unhydrolyzed cAMP was bound to AGI-X2 resin, and the remaining [^3H]adenosine in the aqueous phase was quantitated by scintillation counting. • PDE3: PDE3 partially purified from human platelets was used. […] Unhydrolyzed cAMP was bound to AGI-X2 resin, and the remaining [^3H]adenosine in the aqueous phase was quantitated by scintillation counting. • PDE4: PDE4 partially purified from human U-937 pronocytic cells was used. […] Unhydrolyzed cAMP was bound to AGI-X2 resin, and the remaining [^3H]adenosine in the aqueous phase was quantitated by scintillation counting. • PDE5: PDE5 partially purified from human platelets was used. […]

inhibition of PDE1: greater than 50%
Structure (SMILES): Cn1cc([S+]([O-])C(Cl)Cl)c(=O)c2ccc(F)cc21 (stereo not shown) [dichloroflosequinan, 3-dichloromethylsulfinyl-7-fluoro-1-methyl-4-quinolone]
